From ChEMBL document CHEMBL3758169, “4-Aminoindazolyl-dihydrofuro[3,4-d]pyrimidines as non-covalent inhibitors of mutant epidermal growth factor receptor tyrosine kinase” (Bioorg Med Chem Lett, 2016)
Each block holds one compound with its values, some of them ahead of it.

Tests used:
Hepatocyte [1] = test: Drug metabolism in human hepatocytes assessed as glucuronidation; format: ADME, cell-based
Hepatocyte [2] = test: Drug metabolism in rat hepatocytes assessed as glucuronidation; format: ADME, cell-based
[3] = molecular target: Mitogen-activated protein kinase kinase kinase kinase 5 (Homo sapiens) (UniProt Q9Y4K4); test: Inhibition of KHS1 (unknown origin) at 100 nM
[4] = molecular target: Tyrosine-protein kinase Mer (Homo sapiens) (UniProt Q12866); test: Inhibition of MER (unknown origin) at 100 nM
[5] = molecular target: Serine/threonine-protein kinase PLK2 (Homo sapiens) (UniProt Q9NYY3); test: Inhibition of PLK2 (unknown origin) at 100 nM
[6] = molecular target: G protein-coupled receptor kinase 5 (Homo sapiens) (UniProt P34947); test: Inhibition of GRK5 (unknown origin) at 100 nM
[7] = molecular target: Protein kinase C epsilon type (Homo sapiens) (UniProt Q02156); test: Inhibition of PKCepsilon (unknown origin) at 100 nM
[8] = molecular target: Dual specificity protein kinase CLK1 (Homo sapiens) (UniProt P49759); test: Inhibition of CLK1 (unknown origin) at 100 nM
[9] = molecular target: STE20-like serine/threonine-protein kinase (Homo sapiens) (UniProt Q9H2G2); test: Inhibition of SLK (unknown origin) at 100 nM
[10] = molecular target: Phosphatidylinositol 4-phosphate 3-kinase C2 domain-containing subunit beta (Homo sapiens) (UniProt O00750); test: Inhibition of PI3KC2b (unknown origin) at 100 nM
[11] = molecular target: Casein kinase I isoform gamma-2 (Homo sapiens) (UniProt P78368); test: Inhibition of CK1gamma2 (unknown origin) at 100 nM
[12] = molecular target: Cytoplasmic tyrosine-protein kinase BMX (Homo sapiens) (UniProt P51813); test: Inhibition of BMX (unknown origin) at 100 nM
[13] = molecular target: Mitogen-activated protein kinase kinase kinase 11 (Homo sapiens) (UniProt Q16584); test: Inhibition of MLK3 (unknown origin) at 100 nM
[14] = molecular target: Eukaryotic elongation factor 2 kinase (Homo sapiens) (UniProt O00418); test: Inhibition of EEF2K (unknown origin) at 100 nM
[15] = molecular target: Myosin light chain kinase, smooth muscle (Homo sapiens) (UniProt Q15746); test: Inhibition of MYLK (unknown origin) at 100 nM
[16] = molecular target: Angiopoietin-1 receptor (Homo sapiens) (UniProt Q02763); test: Inhibition of TIE2 (unknown origin) at 100 nM
[17] = molecular target: Mitogen-activated protein kinase 9 (Homo sapiens) (UniProt P45984); test: Inhibition of JNK2 (unknown origin) at 100 nM
[18] = molecular target: Megakaryocyte-associated tyrosine-protein kinase (Homo sapiens) (UniProt P42679); test: Inhibition of Hyl (unknown origin) at 100 nM
[19] = molecular target: Fibroblast growth factor receptor 3 (Homo sapiens) (UniProt P22607); test: Inhibition of FGFR3 (unknown origin) at 100 nM
[20] = molecular target: Serine/threonine-protein kinase BRSK1 (Homo sapiens) (UniProt Q8TDC3); test: Inhibition of BRSK1 (unknown origin) at 100 nM
Rattus norvegicus = test: Unbound AUC in rat at 5 mg/kg, po; format: ADME, organism-based; settings: in vivo
[21] = molecular target: Casein kinase II subunit alpha (Homo sapiens) (UniProt P68400); test: Inhibition of CK2alpha1 (unknown origin) at 100 nM
[22] = molecular target: PAS domain-containing serine/threonine-protein kinase (Homo sapiens) (UniProt Q96RG2); test: Inhibition of PASK (unknown origin) at 100 nM
[23] = molecular target: BDNF/NT-3 growth factors receptor (Homo sapiens) (UniProt Q16620); test: Inhibition of TRKB (unknown origin) at 100 nM
[24] = Total AUC in rat at 5 mg/kg, po; format: ADME, organism-based; parameters: dose 5 mg/kg, time AUCmax, route oral; settings: in vivo
[25] = molecular target: Serine/threonine-protein kinase Sgk1 (Homo sapiens) (UniProt O00141); test: Inhibition of SGK1 (unknown origin) at 100 nM
[26] = molecular target: Calcium/calmodulin-dependent protein kinase type II subunit delta (Homo sapiens) (UniProt Q13557); test: Inhibition of CamKIIdelta (unknown origin) at 100 nM
[27] = molecular target: Serine/threonine-protein kinase PAK 3 (Homo sapiens) (UniProt O75914); test: Inhibition of PAK3 (unknown origin) at 100 nM
[28] = molecular target: Serine/threonine-protein kinase pim-2 (Homo sapiens) (UniProt Q9P1W9); test: Inhibition of PIM2 (unknown origin) at 100 nM
[29] = molecular target: Tyrosine-protein kinase Lyn (Homo sapiens) (UniProt P07948); test: Inhibition of LYNB (unknown origin) at 100 nM
[30] = molecular target: Tyrosine-protein kinase receptor TYRO3 (Homo sapiens) (UniProt Q06418); test: Inhibition of RSE (unknown origin) at 100 nM
[31] = molecular target: Ribosomal protein S6 kinase alpha-4 (Homo sapiens) (UniProt O75676); test: Inhibition of MSK2 (unknown origin) at 100 nM
[32] = molecular target: Macrophage-stimulating protein receptor (Homo sapiens) (UniProt Q04912); test: Inhibition of RON (unknown origin) at 100 nM
[33] = Oral bioavailability in rat at 5 mg/kg; format: ADME, organism-based; settings: in vivo
[34] = molecular target: Serine/threonine-protein kinase 4 (Homo sapiens) (UniProt Q13043); test: Inhibition of MST1 (unknown origin) at 100 nM
[35] = molecular target: Tyrosine-protein kinase ABL2 (Homo sapiens) (UniProt P42684); test: Inhibition of ARG (unknown origin) at 100 nM
[36] = molecular target: Sphingosine kinase 2 (Homo sapiens) (UniProt Q9NRA0); test: Inhibition of SPHK2 (unknown origin) at 100 nM
[37] = molecular target: Myotonin-protein kinase (Homo sapiens) (UniProt Q09013); test: Inhibition of DMPK (unknown origin) at 100 nM
[38] = molecular target: Platelet-derived growth factor receptor alpha (Homo sapiens) (UniProt P16234); test: Inhibition of PDGFRalpha (unknown origin) at 100 nM
[39] = molecular target: Insulin receptor-related protein (Homo sapiens) (UniProt P14616); test: Inhibition of IRR (unknown origin) at 100 nM
[40] = molecular target: Fibroblast growth factor receptor 4 (Homo sapiens) (UniProt P22455); test: Inhibition of FGFR4 (unknown origin) at 100 nM
[41] = molecular target: Serine/threonine-protein kinase DCLK2 (Homo sapiens) (UniProt Q8N568); test: Inhibition of DCAMKL2 (unknown origin) at 100 nM
[42] = molecular target: Calcium/calmodulin-dependent protein kinase type II subunit alpha (Homo sapiens) (UniProt Q9UQM7); test: Inhibition of CamKIIalpha (unknown origin) at 100 nM
[43] = molecular target: Proto-oncogene tyrosine-protein kinase receptor Ret (Homo sapiens) (UniProt P07949); test: Inhibition of RET (unknown origin) at 100 nM
[44] = system: Platelet-derived growth factor receptor alpha (Homo sapiens), P16234 [D842V]; test: Inhibition of PDGFRalpha D842V mutant (unknown origin) at 100 nM

Sequence of Calcium/calmodulin-dependent protein kinase type II subunit alpha (Homo sapiens) (Q9UQM7 whole entry): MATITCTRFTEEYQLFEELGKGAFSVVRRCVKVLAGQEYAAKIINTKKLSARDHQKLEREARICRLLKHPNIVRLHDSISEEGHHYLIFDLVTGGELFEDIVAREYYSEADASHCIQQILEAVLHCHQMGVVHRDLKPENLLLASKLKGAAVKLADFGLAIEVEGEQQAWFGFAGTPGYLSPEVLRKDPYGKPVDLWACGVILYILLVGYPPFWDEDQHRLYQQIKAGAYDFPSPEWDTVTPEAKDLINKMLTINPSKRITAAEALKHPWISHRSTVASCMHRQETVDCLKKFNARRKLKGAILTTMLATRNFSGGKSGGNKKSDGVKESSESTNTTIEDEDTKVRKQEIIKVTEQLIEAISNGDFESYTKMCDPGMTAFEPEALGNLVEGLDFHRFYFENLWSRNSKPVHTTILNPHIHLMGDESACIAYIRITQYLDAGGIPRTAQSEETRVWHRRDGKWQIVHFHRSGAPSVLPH
Sequence of Calcium/calmodulin-dependent protein kinase type II subunit delta (Homo sapiens) (Q13557 whole entry): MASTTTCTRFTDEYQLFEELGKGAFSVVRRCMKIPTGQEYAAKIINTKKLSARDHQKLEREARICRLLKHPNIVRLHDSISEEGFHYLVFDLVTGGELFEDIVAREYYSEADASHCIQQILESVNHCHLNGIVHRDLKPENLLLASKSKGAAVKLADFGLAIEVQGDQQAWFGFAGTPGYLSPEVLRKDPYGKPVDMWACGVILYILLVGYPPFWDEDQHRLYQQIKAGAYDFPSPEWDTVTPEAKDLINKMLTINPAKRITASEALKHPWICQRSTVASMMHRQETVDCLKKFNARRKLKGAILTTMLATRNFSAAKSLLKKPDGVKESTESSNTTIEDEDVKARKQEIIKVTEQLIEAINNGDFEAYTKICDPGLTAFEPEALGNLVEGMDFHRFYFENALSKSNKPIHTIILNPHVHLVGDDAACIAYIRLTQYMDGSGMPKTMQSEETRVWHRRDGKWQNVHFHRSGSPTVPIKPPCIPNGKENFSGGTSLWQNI
Sequence of Insulin receptor-related protein (Homo sapiens) (P14616 27-742 limits assumed): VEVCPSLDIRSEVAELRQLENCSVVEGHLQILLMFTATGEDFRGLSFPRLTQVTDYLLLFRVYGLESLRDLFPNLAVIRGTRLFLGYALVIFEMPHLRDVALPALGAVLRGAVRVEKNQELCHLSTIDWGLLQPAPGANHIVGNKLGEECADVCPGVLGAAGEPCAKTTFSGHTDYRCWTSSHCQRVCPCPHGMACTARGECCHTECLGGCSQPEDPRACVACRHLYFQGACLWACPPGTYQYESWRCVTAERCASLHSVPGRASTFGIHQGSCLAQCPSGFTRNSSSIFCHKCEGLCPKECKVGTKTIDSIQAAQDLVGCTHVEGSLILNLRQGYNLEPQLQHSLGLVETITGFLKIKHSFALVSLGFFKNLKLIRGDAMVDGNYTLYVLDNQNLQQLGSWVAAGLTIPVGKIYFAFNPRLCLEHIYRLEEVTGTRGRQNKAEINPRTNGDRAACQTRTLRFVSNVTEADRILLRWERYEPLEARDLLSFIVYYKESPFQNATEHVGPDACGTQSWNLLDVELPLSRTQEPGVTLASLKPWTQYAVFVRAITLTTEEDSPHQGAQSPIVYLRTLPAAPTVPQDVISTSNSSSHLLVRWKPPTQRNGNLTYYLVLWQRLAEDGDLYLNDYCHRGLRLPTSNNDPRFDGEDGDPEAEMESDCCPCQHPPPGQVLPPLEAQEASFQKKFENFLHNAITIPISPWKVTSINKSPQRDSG
Sequence of Insulin receptor-related protein (Homo sapiens) (P14616 747-1297 limits assumed): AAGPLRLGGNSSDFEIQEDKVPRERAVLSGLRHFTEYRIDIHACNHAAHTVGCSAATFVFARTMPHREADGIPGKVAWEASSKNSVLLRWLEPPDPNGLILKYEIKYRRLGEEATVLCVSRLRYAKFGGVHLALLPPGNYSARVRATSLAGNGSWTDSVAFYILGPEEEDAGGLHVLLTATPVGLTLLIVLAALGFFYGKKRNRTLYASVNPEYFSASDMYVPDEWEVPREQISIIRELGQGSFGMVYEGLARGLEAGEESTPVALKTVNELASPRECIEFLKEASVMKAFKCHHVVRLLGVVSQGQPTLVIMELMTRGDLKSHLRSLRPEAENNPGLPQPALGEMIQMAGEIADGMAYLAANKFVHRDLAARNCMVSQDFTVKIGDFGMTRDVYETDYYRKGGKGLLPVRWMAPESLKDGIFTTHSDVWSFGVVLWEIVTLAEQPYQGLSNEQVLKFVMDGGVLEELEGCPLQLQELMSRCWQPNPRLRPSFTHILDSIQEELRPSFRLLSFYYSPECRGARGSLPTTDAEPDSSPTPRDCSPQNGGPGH
Sequence of Tyrosine-protein kinase ABL2 (Homo sapiens) (P42684 whole entry): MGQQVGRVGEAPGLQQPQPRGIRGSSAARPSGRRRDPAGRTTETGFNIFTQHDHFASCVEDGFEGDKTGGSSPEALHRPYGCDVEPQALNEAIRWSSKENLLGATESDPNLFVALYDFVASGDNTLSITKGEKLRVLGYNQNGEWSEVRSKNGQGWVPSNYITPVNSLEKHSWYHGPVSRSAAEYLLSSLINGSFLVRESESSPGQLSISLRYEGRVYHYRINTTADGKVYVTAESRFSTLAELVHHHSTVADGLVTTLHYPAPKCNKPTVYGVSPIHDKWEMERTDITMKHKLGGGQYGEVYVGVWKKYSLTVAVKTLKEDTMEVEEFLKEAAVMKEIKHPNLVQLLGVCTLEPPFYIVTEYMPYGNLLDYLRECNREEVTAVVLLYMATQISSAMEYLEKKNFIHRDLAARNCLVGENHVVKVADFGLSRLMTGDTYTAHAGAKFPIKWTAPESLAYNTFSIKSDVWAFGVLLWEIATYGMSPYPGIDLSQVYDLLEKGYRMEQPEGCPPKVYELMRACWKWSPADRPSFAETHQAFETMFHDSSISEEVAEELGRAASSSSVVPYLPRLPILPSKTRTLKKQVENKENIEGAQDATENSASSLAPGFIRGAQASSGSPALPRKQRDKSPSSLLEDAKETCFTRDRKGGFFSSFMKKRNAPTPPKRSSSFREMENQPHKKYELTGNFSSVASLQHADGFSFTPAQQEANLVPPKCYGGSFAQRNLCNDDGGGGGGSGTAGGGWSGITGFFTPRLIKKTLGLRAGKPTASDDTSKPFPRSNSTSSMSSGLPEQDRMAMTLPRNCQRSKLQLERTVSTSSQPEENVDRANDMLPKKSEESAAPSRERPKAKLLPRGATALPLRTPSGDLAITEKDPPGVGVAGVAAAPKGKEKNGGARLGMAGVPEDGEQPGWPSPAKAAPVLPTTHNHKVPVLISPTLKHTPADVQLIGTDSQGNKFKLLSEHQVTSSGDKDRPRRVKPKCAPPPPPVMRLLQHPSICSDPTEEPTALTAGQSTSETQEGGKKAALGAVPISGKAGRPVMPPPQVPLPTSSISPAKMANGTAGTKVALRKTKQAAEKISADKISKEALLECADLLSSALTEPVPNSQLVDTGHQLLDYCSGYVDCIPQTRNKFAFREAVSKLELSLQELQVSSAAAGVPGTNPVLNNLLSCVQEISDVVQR
Sequence of Dual specificity protein kinase CLK1 (Homo sapiens) (P49759 whole entry, looked up): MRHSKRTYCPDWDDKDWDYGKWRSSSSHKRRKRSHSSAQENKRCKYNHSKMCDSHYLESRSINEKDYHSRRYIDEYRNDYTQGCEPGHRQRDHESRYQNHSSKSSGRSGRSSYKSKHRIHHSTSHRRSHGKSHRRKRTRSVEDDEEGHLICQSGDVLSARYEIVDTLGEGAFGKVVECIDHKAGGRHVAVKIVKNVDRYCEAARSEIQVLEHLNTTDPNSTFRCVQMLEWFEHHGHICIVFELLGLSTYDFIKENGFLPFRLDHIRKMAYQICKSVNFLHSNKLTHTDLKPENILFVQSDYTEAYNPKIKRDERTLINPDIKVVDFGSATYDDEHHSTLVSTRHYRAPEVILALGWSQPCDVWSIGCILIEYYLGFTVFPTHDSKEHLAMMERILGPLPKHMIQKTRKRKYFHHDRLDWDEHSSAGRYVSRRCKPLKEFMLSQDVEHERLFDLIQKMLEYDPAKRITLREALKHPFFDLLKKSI
Sequence of Casein kinase II subunit alpha (Homo sapiens) (P68400 whole entry, looked up, the tested form may be a part): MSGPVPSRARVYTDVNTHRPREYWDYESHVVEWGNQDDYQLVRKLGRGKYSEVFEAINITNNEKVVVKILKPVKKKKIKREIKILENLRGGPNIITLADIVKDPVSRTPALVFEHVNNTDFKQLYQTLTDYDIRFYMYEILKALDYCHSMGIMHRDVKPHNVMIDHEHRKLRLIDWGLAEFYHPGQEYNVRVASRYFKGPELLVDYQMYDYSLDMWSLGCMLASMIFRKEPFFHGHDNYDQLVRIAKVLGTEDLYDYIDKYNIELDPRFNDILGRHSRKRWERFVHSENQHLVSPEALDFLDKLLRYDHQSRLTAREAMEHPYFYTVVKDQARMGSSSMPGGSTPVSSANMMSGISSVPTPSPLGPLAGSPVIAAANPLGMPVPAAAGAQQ
Sequence of Serine/threonine-protein kinase 4 (Homo sapiens) (Q13043 whole entry): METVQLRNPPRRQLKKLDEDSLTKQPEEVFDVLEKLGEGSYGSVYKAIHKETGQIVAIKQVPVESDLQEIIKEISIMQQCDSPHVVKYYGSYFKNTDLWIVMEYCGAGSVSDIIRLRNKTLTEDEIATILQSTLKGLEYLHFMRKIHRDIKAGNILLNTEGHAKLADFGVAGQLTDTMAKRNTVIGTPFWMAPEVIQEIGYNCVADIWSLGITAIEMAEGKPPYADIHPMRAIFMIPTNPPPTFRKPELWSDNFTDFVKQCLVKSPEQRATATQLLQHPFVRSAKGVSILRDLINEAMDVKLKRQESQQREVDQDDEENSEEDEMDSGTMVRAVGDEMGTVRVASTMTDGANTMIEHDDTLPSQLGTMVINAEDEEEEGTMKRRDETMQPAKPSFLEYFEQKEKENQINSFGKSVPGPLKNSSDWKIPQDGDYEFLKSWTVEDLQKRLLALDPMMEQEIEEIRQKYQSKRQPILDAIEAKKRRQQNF

- Drug metabolism (Hepatocyte [1]): metabolite_detected
- Drug metabolism (Hepatocyte [2]): metabolite_detected
SMILES: CC1(C)OCc2c(Nc3n[nH]c4c(Cl)cccc34)nc(-c3cn[nH]c3)nc21

- inhibition [3]: 12.7%
- inhibition [4]: 6.3%
- inhibition [5]: 5.5%
- inhibition [6]: -1.4%
- inhibition [7]: 4.9%
- inhibition [8]: 7.3%
- inhibition [9]: 66%
- inhibition [10]: 18.8%
- inhibition [11]: 3.5%
- inhibition [12]: 13.7%
- inhibition [13]: 6.7%
- inhibition [14]: 7.5%
- inhibition [15]: 2.8%
- inhibition [16]: -0.1%
- inhibition [17]: 44.8%
- inhibition [18]: 0.8%
- inhibition [19]: 18.4%
- inhibition [20]: 1.7%
- fAUC (Rattus norvegicus): 0.05 µM·h
- inhibition [21]: 1.4%
- inhibition [22]: 1.2%
- inhibition [23]: -1.4%
- AUC [24]: 0.37 µM·h
- inhibition [25]: -5.2%
- inhibition [26]: -4.2%
- inhibition [27]: 8.9%
- inhibition [28]: 3.1%
- inhibition [29]: 89.4%
- inhibition [30]: 5.8%
- inhibition [31]: 15.2%
- inhibition [32]: 3.8%
- bioavailability [33]: 13%
- inhibition [34]: 13.1%
- inhibition [35]: 69.5%
- inhibition [36]: -9.8%
- inhibition [37]: 3.3%
- inhibition [38]: 57.1%
- inhibition [39]: 12%
- inhibition [40]: 14.7%
- inhibition [41]: 1.8%
- inhibition [42]: -0.1%
- inhibition [43]: 98.2%
- inhibition [44]: 77.3%
SMILES: CC1(C)OCc2c(Nc3n[nH]c4ccccc34)nc(-c3cn[nH]c3)nc21
